Test results as given in patent US9776967B2, “Carboxamide derivatives as pesticidal compounds” (priority 2013, dated 2017).
Read-outs that look alike come from different tables or passages of the source.

Key:
[1] = system: Haemonchus contortus; assay: In vitro assay with Haemonchus contortus (HAEMCO), larval mortality; conditions: 120 h; for Emax at 0.8 ppm / Emax at 4 ppm / Emax at 20 ppm: HAEMCO, 5dat, comparative example, read-out: % Efficacy; for mortality at 20 ppm: read-out: activity (larval mortality)
Description: In Vitro Assay with Haemonchus contortus (HAEMCO)
(§1) Solvent: Dimethyl Sulfoxide
(§2) To produce a suitable preparation of active compound, 10 mg of active compound are dissolved in 0.5 ml solvent, and the concentrate is diluted with “Ringer's solution” to the desired concentration.
Approximately 40 larvae of the red stomach worm (Haemonchus contortus) are transferred into a test tube containing compound solution.
After 5 days percentage of larval mortality are recorded. 100% efficacy means all larvae are killed, 0% efficacy means no larvae are killed.

[2] = LogP by HPLC on reversed phase columns (EEC directive 79/831 Annex V.A8); assay type: physicochemical
Description: Calibration was done with straight-chain alkan2-ones (with 3 to 16 carbon atoms) with known Log P values (measurement of Log P values using retention times with linear interpolation between successive alkanones). Lambda-max-values were determined using UV-spectra from 200 nm to 400 nm and the peak values of the chromatographic signals.

[3] = system: Nippostrongylus brasiliensis; assay: In vitro assay with Nippostrongylus brasiliensis (NIPOBR), acetylcholine esterase readout; conditions: adult worms, read-out: activity (reduction of AChE compared to negative control); for inhibition at 1 ppm: 1 ppm (1 μg/ml); for inhibition at 10 ppm: 10 ppm (10 μg/ml)
Description: In Vitro Assay with Nippostrongylus brasiliensis (NIPOBR)
Adult Nippostrongylus brasiliensis were washed with saline buffer containing 100 U/ml penicillin, 0.1 mg/ml streptomycin and 2.5 μg/ml amphotericin B. Test compounds were dissolved in DMSO and worms were incubated in medium in a final concentration of 10 μg/ml (10 ppm) respectively 1 μg/ml (1 ppm). An aliquot of the medium was used to determine the acetylcholine esterase activity in comparison to a negative control. The principle of measuring acetylcholine esterase as readout for anthelmintic activity was described in Rapson et al (1986) and Rapson et al (1987).

[4] = system: Cooperia curticei; assay: In vitro assay with Cooperia curticei (COOPCU), larval mortality; conditions: 120 h, read-out: activity (larval mortality)
Description: In Vitro Assay with Cooperia curticei (COOPCU)
as §1, §2
Approximately 40 nematode larvae (Cooperia curticei) are transferred into a test tube containing the compound solution.
After 5 days percentage of larval mortality is recorded. 100% efficacy means all larvae are killed; 0% efficacy means no larvae are killed.

[5] = system: Meloidogyne incognita; assay: Meloidogyne incognita (MELGIN) assay, gall formation on salad seedlings; assay type: in vivo; conditions: 336 h, after 14 days, read-out: nematicidal activity (percentage of gall formation; 100% = no galls)
Description: Meloidogyne incognita (MELGIN) Assay
Solvent: 125.0 parts by weight of acetone
To produce a suitable preparation of active compound, 1 part by weight of active compound is mixed with the stated amount of solvent, and the concentrate is diluted with water to the desired concentration.
Vessels are filled with sand, a solution of the active ingredient, a suspension containing eggs and larvae of the southern root-knot nematode (Meloidogyne incognita) and salad seeds. The salad seeds germinate and the seedlings grow. Galls develop in the roots.
After 14 days the nematicidal activity is determined on the basis of the percentage of gall formation. 100% means no galls were found and 0% means the number of galls found on the roots of the treated plants was equal to that in untreated control plants.

[6] = LC-UV, acidic range, 0.1% formic acid in water and acetonitrile, read-out: logP (HCOOH) [a]
[7] = reversed-phase HPLC column, LC-UV, acidic range, 0.1% formic acid in water and acetonitrile, read-out: logP (HCOOH) [a]

| Structure (SMILES) | chromatographic logP [2, 6] | inhibition at 1 ppm [3] [%] | mortality at 20 ppm [4] [%] | further results |
| --- | --- | --- | --- | --- |
| O=C(NCCc1ccc(-c2ccc(OC(F)(F)F)cc2)cc1)c1ccccc1C(F)(F)F [Ex.-No. 1-49, reference compound] | – | – | – | Emax at 0.8 ppm [1]: 60%; Emax at 4 ppm [1]: 60%; Emax at 20 ppm ([1]; 20 ppm): 80% |
| O=C(NCCc1ncc(-c2ccc(Cl)cc2)cc1Cl)c1ccccc1C(F)(F)F [Example 1, N-{2-[3-chloro-5-(4-chlorophenyl)pyridin-2-yl]ethyl}-2-(trifluoromethyl)benzamide] | 3.97 | ≥ 60 | 100 | inhibition at 10 ppm [3]: ≥ 60%; mortality at 20 ppm ([1]; 20 ppm, after 5 days): 100%; Emax at 0.8 ppm [1]: 100%; Emax at 4 ppm [1]: 100%; Emax at 20 ppm ([1]; 20 ppm): 100%; pest or weed control at 20 ppm [5]: 100% |
| O=C(NCC(F)(F)c1ncc(-c2ccc(Cl)cc2)cc1Cl)c1ccccc1C(F)(F)F [Example 2, N-{2-[3-chloro-5-(4-chlorophenyl)pyridin-2-yl]-2,2-difluoroethyl}-2-(trifluoromethyl)-benzamide] | 4.17 | ≥ 60 | 100 | mortality at 20 ppm ([1]; 20 ppm, after 5 days): 100% |
| O=C(NCC(F)(F)c1ncc(-c2cccc(Cl)c2)cc1Cl)c1ccccc1C(F)(F)F [Example 3] | – | ≥ 60 | 100 | chromatographic logP ([2]; logP (HCOOH) [a]): 4.17; inhibition at 10 ppm [3]: ≥ 60%; mortality at 20 ppm [1]: 100% |
| O=C(NCC(F)(F)c1ncc(-c2ccc(OC(F)F)cc2)cc1Cl)c1ccccc1C(F)(F)F [Example 4] | – | ≥ 60 | 100 | chromatographic logP ([2]; logP (HCOOH) [a]): 3.78; inhibition at 10 ppm [3]: ≥ 60%; mortality at 20 ppm [1]: 100%; pest or weed control at 20 ppm [5]: 100% |
| O=C(NCC(F)(F)c1ncc(-c2ccccc2)cc1Cl)c1ccccc1C(F)(F)F [Example 5] | – | ≥ 60 | 100 | chromatographic logP ([2]; logP (HCOOH) [a]): 3.75; inhibition at 10 ppm [3]: ≥ 60%; mortality at 20 ppm [1]: 100%; pest or weed control at 20 ppm [5]: 90% |
| COc1ccc(-c2cnc(C(F)(F)CNC(=O)c3ccccc3C(F)(F)F)c(Cl)c2)cc1Cl [Example 6] | 3.94 | – | 100 | mortality at 20 ppm ([1]; 20 ppm, after 5 days): 100%; pest or weed control at 20 ppm [5]: 90% |
| COc1ccc(-c2cnc(C(F)(F)CNC(=O)c3ccccc3C(F)(F)F)c(Cl)c2)cc1 [Example 7] | 3.68 | ≥ 60 | 100 | inhibition at 10 ppm [3]: ≥ 60%; mortality at 20 ppm ([1]; 20 ppm, after 5 days): 100%; pest or weed control at 20 ppm [5]: 100% |
| O=C(NCC(F)(F)c1ncc(-c2ccc3c(c2)OCO3)cc1Cl)c1ccccc1C(F)(F)F [Example 8] | – | ≥ 60 | 100 | chromatographic logP ([2]; logP (HCOOH) [a]): 3.53; inhibition at 10 ppm [3]: ≥ 60%; mortality at 20 ppm [1]: 100%; pest or weed control at 20 ppm [5]: 100% |
| Cc1ccccc1-c1cnc(C(F)(F)CNC(=O)c2ccccc2C(F)(F)F)c(Cl)c1 [Example 9] | 4 | – | 100 | mortality at 20 ppm ([1]; 20 ppm, after 5 days): 100%; pest or weed control at 20 ppm [5]: 100% |
| O=C(NCC(F)(F)c1ncc(-c2cccc(C(F)(F)F)c2)cc1Cl)c1ccccc1C(F)(F)F [Example 10] | – | ≥ 60 | 100 | chromatographic logP ([2]; logP (HCOOH) [a]): 4.17; mortality at 20 ppm [1]: 100% |
| O=C(NCC(F)(F)c1ncc(-c2cc(F)cc(F)c2)cc1Cl)c1ccccc1C(F)(F)F [Example 12] | – | ≥ 60 | 100 | chromatographic logP ([2]; logP (HCOOH) [a]): 3.89; inhibition at 10 ppm [3]: ≥ 60%; mortality at 20 ppm [1]: 100% |
| O=C(NCC(F)(F)c1ncc(-c2ccccc2F)cc1Cl)c1ccccc1C(F)(F)F [Example 13] | – | ≥ 60 | 100 | chromatographic logP ([2]; logP (HCOOH) [a]): 3.73; mortality at 20 ppm [1]: 100% |
| O=C(NCC(F)(F)c1ncc(-c2ccccc2Cl)cc1Cl)c1ccccc1C(F)(F)F [Example 16] | – | ≥ 60 | 100 | chromatographic logP ([2]; logP (HCOOH) [a]): 4; inhibition at 10 ppm [3]: ≥ 60%; mortality at 20 ppm [1]: 100% |
| CN(C)c1ccc(-c2cnc(C(F)(F)CNC(=O)c3ccccc3C(F)(F)F)c(Cl)c2)cc1 [Example 17] | 4.09 | – | 100 | mortality at 20 ppm ([1]; 20 ppm, after 5 days): 100% |
| O=C(NCC(F)(F)c1ncc(-c2ccc(F)cc2)cc1Cl)c1nccnc1C(F)(F)F [Example 19] | 3.51 | – | 100 | mortality at 20 ppm ([1]; 20 ppm, after 5 days): 100%; pest or weed control at 20 ppm [5]: 90% |
| CC(F)(CNC(=O)c1cccnc1C(F)(F)F)c1ncc(-c2ccc(Cl)cc2)cc1Cl (stereo not shown) [Example 20] | 3.83 | – | – | – |
| CC(F)(CNC(=O)c1ccccc1C(F)(F)F)c1ncc(-c2ccc(F)cc2)cc1Cl (stereo not shown) [Example 21, N-{2-[3-chloro-5-(4-fluorophenyl)pyridin-2-yl]-2-fluoropropyl}-2-(trifluoromethyl) benzamide] | 3.96 | – | – | pest or weed control at 20 ppm [5]: 100% |

| Structure (SMILES) | chromatographic logP [2, 6] | inhibition at 1 ppm [3] [%] | mortality at 20 ppm [4] [%] | further results |
| --- | --- | --- | --- | --- |
| Cc1ccc(-c2cnc(C(C)(F)CNC(=O)c3cccnc3C(F)(F)F)c(Cl)c2)cc1 (stereo not shown) [Example 22] | 2.15 | – | – | – |
| CC(F)(CNC(=O)c1ccccc1C(F)(F)F)c1ncc(-c2ccccc2)cc1Cl (stereo not shown) [Example 23] | 3.92 | – | – | – |
| O=C(NCC(F)(F)c1ncc(-c2ccc3c(c2)OC(F)(F)O3)cc1Cl)c1ccccc1C(F)(F)F [Example 25] | 4.18 | – | – | – |
| O=C(NCC(F)(F)c1ncc(-c2ccc(F)cc2)cc1Cl)c1cccnc1C(F)(F)F [Example 26] | 3.29 | – | – | pest or weed control at 20 ppm [5]: 100% |
| CC(F)(CNC(=O)c1cccnc1C(F)(F)F)c1ncc(-c2ccccc2)cc1Cl (stereo not shown) [Example 28] | 3.38 | – | – | – |
| Cc1ccc(-c2cnc(C(C)(F)CNC(=O)c3ccccc3C(F)(F)F)c(Cl)c2)cc1 (stereo not shown) [Example 29] | 4.35 | – | – | – |
| O=C(NCC(F)(F)c1ncc(-c2ccc(N3CCCC3)cc2)cc1Cl)c1ccccc1C(F)(F)F [Example 30] | 4.83 | – | 100 | mortality at 20 ppm ([1]; 20 ppm, after 5 days): 90% |
| CN1CCN(c2ccc(-c3cnc(C(F)(F)CNC(=O)c4ccccc4C(F)(F)F)c(Cl)c3)cc2)CC1 [Example 31] | 1.78 | – | 100 | chromatographic logP ([2]; LC-UV, neutral range, 0.001 molar ammonium acetate solution in water and acetonitrile, read-out: logP [b]): 3.39; mortality at 20 ppm ([1]; 20 ppm, after 5 days): 100% |
| O=C(NCC(F)(F)c1ncc(-c2ccc(N3CCOCC3)cc2)cc1Cl)c1ccccc1C(F)(F)F [Example 32] | 3.59 | – | 100 | – |
| CS(=O)(=O)c1ccc(-c2cnc(C(F)(F)CNC(=O)c3ccccc3C(F)(F)F)c(Cl)c2)cc1 [Example 33] | 2.65 | – | – | – |
| O=C(NCC(F)(F)c1ncc(-c2ccc(F)c(C(F)(F)F)c2)cc1Cl)c1ccccc1C(F)(F)F [Example 34] | 4.19 | – | – | – |
| CSc1ccc(-c2cnc(C(F)(F)CNC(=O)c3ccccc3C(F)(F)F)c(Cl)c2)cc1 [Example 35] | 4.1 | – | – | – |
| CNc1ccc(-c2cnc(C(F)(F)CNC(=O)c3ccccc3C(F)(F)F)c(Cl)c2)cc1 [Example 36] | 3.39 | – | – | – |
| N#Cc1ccc(-c2cnc(C(F)(F)CNC(=O)c3ccccc3C(F)(F)F)c(Cl)c2)cc1 [Example 37] | – | – | – | chromatographic logP [2, 7]: 3.29 |
| CC(=O)Nc1ccc(-c2cnc(C(F)(F)CNC(=O)c3ccccc3C(F)(F)F)c(Cl)c2)cc1 [Example 38] | 2.7 | – | – | – |
| O=C(NCC(F)(F)c1ncc(-c2ccc(SC(F)(F)F)cc2)cc1Cl)c1ccccc1C(F)(F)F [Example 39] | 4.65 | – | – | – |
| NCC(F)(F)c1ncc(-c2ccc(F)cc2)cc1Cl [INT-1, 2-[3-chloro-5-(4-fluorophenyl)-2-pyridyl]-2,2-difluoro-ethanamine] | – | – | – | chromatographic logP [2, 7]: 1.18; chromatographic logP ([2]; reversed-phase HPLC column, LC-UV, neutral range, 0.001 molar ammonium acetate solution in water and acetonitrile, read-out: logP [b]): 2.61 |
